Data as given in PubChem BioAssay AID248 (DTP/NCI, 2004).
“And” between values parts separate entries of the source, which are not always exact repeats. Equal values may be shown once. Inconclusive results and toxic doses are left out.

Test system: L1210 leukemia ip in BDF1 mice, survival T/C
Assay: NCI In Vivo Anticancer Drug Screen. Data for tumor model L1210 Leukemia (intraperitoneal) in B6D2F1 (BDF1) mice
Details: endpoint: mean survival time, higher = longer survival
How it was run: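 Transplantable tumor model; survival measured in treated vs vehicle control mice. Value = treated/control.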

[1] = dose: 100.0 mg/kg/injection, schedule: Q01DX009 (ip), vehicle: Klucel (hydroxypropylcellulose) (HPC)
[2] = dose: 100.0 mg/kg/injection, schedule: Q04DX003 (ip), vehicle: Klucel (hydroxypropylcellulose) (HPC)
[3] = dose: 200.0 mg/kg/injection, schedule: Q01DX009 (ip), vehicle: Klucel (hydroxypropylcellulose) (HPC)
[4] = dose: 200.0 mg/kg/injection, schedule: Q04DX003 (ip), vehicle: Klucel (hydroxypropylcellulose) (HPC)
[5] = dose: 25.0 mg/kg/injection, schedule: Q04DX003 (ip), vehicle: saline
[6] = dose: 50.0 mg/kg/injection, schedule: Q04DX003 (ip), vehicle: saline
[7] = dose: 100.0 mg/kg/injection, schedule: Q04DX003 (ip), vehicle: saline with Tween-80
[8] = dose: 200.0 mg/kg/injection, schedule: Q04DX003 (ip), vehicle: saline with Tween-80
[9] = dose: 400.0 mg/kg/injection, schedule: Q04DX003 (ip), vehicle: saline with Tween-80

With CC(=O)Oc1cc(-c2c(C)cc(C)cc2C)c(OC(C)=O)cc1C the T/C [1] was 104 % of control, the T/C [2] was 94 % of control and the T/C [3] was 97 % of control. The T/C [4] was 90 % of control, the T/C (dose: 400.0 mg/kg/injection, schedule: Q01DX009 (ip), vehicle: Klucel (hydroxypropylcellulose) (HPC)) was 97 % of control and the T/C (dose: 400.0 mg/kg/injection, schedule: Q04DX003 (ip), vehicle: Klucel (hydroxypropylcellulose) (HPC)) was 95 % of control.

CCCNC(=O)Oc1ccccc1C(N)=O was tested, and the T/C [1] was 105 % of control and the T/C [3] was 102 % of control.

For [O]=[Sb]([OH])([c]1ccccc1)[c]1ccccc1, the T/C (dose: 10.0 mg/kg/injection, schedule: Q01DX001 (ip), vehicle: saline) was 87 % of control and the T/C (dose: 20.0 mg/kg/injection, schedule: Q01DX001 (ip), vehicle: saline) was 91 % of control.

With O=C(OCC(Cl)(Cl)Cl)c1ccc(Cl)cc1 the T/C (dose: 100.0 mg/kg/injection, schedule: Q04DX002 (ip), vehicle: other) was 97 % of control, the T/C (dose: 200.0 mg/kg/injection, schedule: Q04DX002 (ip), vehicle: other) was 97 % of control and the T/C (dose: 400.0 mg/kg/injection, schedule: Q04DX002 (ip), vehicle: other) was 97 % of control.

CN1C2CCC1CC(=C(C#N)C(N)=O)C2 was tested, and the T/C (dose: 3.13 mg/kg/injection, schedule: Q01DX009 (ip), vehicle: Klucel (hydroxypropylcellulose) (HPC)) was 100 % of control, the T/C (dose: 3.13 mg/kg/injection, schedule: Q04DX003 (ip), vehicle: Klucel (hydroxypropylcellulose) (HPC)) was 107 % of control and the T/C (dose: 6.25 mg/kg/injection, schedule: Q01DX009 (ip), vehicle: Klucel (hydroxypropylcellulose) (HPC)) was 98 % of control. The T/C (dose: 6.25 mg/kg/injection, schedule: Q04DX003 (ip), vehicle: Klucel (hydroxypropylcellulose) (HPC)) was 102 % of control and the T/C (dose: 12.5 mg/kg/injection, schedule: Q04DX003 (ip), vehicle: Klucel (hydroxypropylcellulose) (HPC)) was 104 % of control and 88 % of control.

For Cc1nc(N)[nH]c(=O)c1CCCC#N, the T/C (dose: 100.0 mg/kg/injection, schedule: Q01DX001 (ip), vehicle: Klucel (hydroxypropylcellulose) (HPC)) was 104 % of control, the T/C (dose: 100.0 mg/kg/injection, schedule: Q04DX002 (ip), vehicle: Klucel (hydroxypropylcellulose) (HPC)) was 97 % of control and 109 % of control and the T/C [2] was 101 % of control. For the same compound, the T/C (dose: 200.0 mg/kg/injection, schedule: Q01DX001 (ip), vehicle: Klucel (hydroxypropylcellulose) (HPC)) was 98 % of control, the T/C (dose: 200.0 mg/kg/injection, schedule: Q04DX002 (ip), vehicle: Klucel (hydroxypropylcellulose) (HPC)) was 93 % of control and 103 % of control and the T/C [4] was 112 % of control. For the same compound, the T/C (dose: 400.0 mg/kg/injection, schedule: Q01DX001 (ip), vehicle: Klucel (hydroxypropylcellulose) (HPC)) was 100 % of control and the T/C (dose: 400.0 mg/kg/injection, schedule: Q04DX002 (ip), vehicle: Klucel (hydroxypropylcellulose) (HPC)) was 104 % of control and 90 % of control.

CNC(=N)c1ccc(NC(=N)c2ccc(NC(=O)Nc3ccc(NC(=O)Nc4ccc(C(=N)Nc5ccc(C(=N)NC)cc5)cc4)cc3)cc2)cc1 was tested, and the T/C (dose: 0.5 mg/kg/injection, schedule: Q01DX015 (ip), vehicle: water) was 103 % of control, the T/C (dose: 1.0 mg/kg/injection, schedule: Q01DX015 (ip), vehicle: water) was 116 % of control and the T/C (dose: 2.0 mg/kg/injection, schedule: Q01DX015 (ip), vehicle: water) was 152 % of control. The T/C (dose: 5.0 mg/kg/injection, schedule: Q01DX Z (ip), vehicle: water) was 156 % of control, the T/C (dose: 7.5 mg/kg/injection, schedule: Q01DX Z (ip), vehicle: water) was 180 % of control and the T/C (dose: 10.0 mg/kg/injection, schedule: Q01DX Z (ip), vehicle: water) was 150 % of control. For the same compound, the T/C (dose: 15.0 mg/kg/injection, schedule: Q01DX Z (ip), vehicle: water) was 161 % of control, the T/C (dose: 20.0 mg/kg/injection, schedule: Q01DX Z (ip), vehicle: water) was 104 % of control and the T/C (dose: 30.0 mg/kg/injection, schedule: Q01DX Z (ip), vehicle: water) was 87 % of control. The T/C (dose: 35.7 mg/kg/injection, schedule: Q01DX Z (ip), vehicle: water) was 101 % of control.

In the case of CNC(=S)N/N=C/c1cc(Cl)cc(Cl)c1, the T/C (dose: 100.0 mg/kg/injection, schedule: Q01DX001 (ip), vehicle: other) is reported as 102 % of control, the T/C (dose: 200.0 mg/kg/injection, schedule: Q01DX001 (ip), vehicle: other) is reported as 102 % of control and the T/C (dose: 400.0 mg/kg/injection, schedule: Q01DX001 (ip), vehicle: other) is reported as 98 % of control.

In the case of Nc1nc2c(nc(NO)n2C2OC(CO)C(O)C2O)c(=O)[nH]1 (stereo unspecified), the T/C (dose: 50.0 mg/kg/injection, schedule: Q01DX001 (ip), vehicle: carboxymethylcellulose (CMC)) is reported as 95 % of control, the T/C (dose: 100.0 mg/kg/injection, schedule: Q01DX001 (ip), vehicle: carboxymethylcellulose (CMC)) is reported as 110 % of control and the T/C (dose: 200.0 mg/kg/injection, schedule: Q01DX001 (ip), vehicle: carboxymethylcellulose (CMC)) is reported as 101 % of control.

Cc1ccc2c(c1C)C(=O)C(=O)N2 was tested, and the T/C (dose: 50.0 mg/kg/injection, schedule: Q01DX001 (ip), vehicle: saline) was 110 % of control, the T/C (dose: 100.0 mg/kg/injection, schedule: Q01DX001 (ip), vehicle: saline) was 104 % of control and the T/C (dose: 200.0 mg/kg/injection, schedule: Q01DX001 (ip), vehicle: saline) was 110 % of control. For the same compound, the T/C (dose: 400.0 mg/kg/injection, schedule: Q01DX001 (ip), vehicle: saline) was 104 % of control.

With CCOP(=O)(Cc1ccc(Cl)cc1)OCC the T/C (dose: 100.0 mg/kg/injection, schedule: Q01DX009 (ip), vehicle: carboxymethylcellulose (CMC)) was 102 % of control and 90 % of control, the T/C (dose: 100.0 mg/kg/injection, schedule: Q04DX002 (ip), vehicle: carboxymethylcellulose (CMC)) was 98 % of control and 107 % of control and the T/C (dose: 100.0 mg/kg/injection, schedule: Q04DX003 (ip), vehicle: carboxymethylcellulose (CMC)) was 96 % of control. For the same compound, the T/C (dose: 200.0 mg/kg/injection, schedule: Q01DX009 (ip), vehicle: carboxymethylcellulose (CMC)) was 104 % of control and 107 % of control, the T/C (dose: 200.0 mg/kg/injection, schedule: Q04DX002 (ip), vehicle: carboxymethylcellulose (CMC)) was 93 % of control and 101 % of control and the T/C (dose: 200.0 mg/kg/injection, schedule: Q04DX003 (ip), vehicle: carboxymethylcellulose (CMC)) was 100 % of control. For the same compound, the T/C (dose: 400.0 mg/kg/injection, schedule: Q04DX002 (ip), vehicle: carboxymethylcellulose (CMC)) was 93 % of control and 95 % of control.

CSc1ncc(COP(=S)(OCc2cnc(SC)nc2N)OCc2cnc(SC)nc2N)c(N)n1 was tested, and the T/C (dose: 12.5 mg/kg/injection, schedule: Q04DX003 (ip), vehicle: saline) was 100 % of control, the T/C [5] was 103 % of control and the T/C [6] was 97 % of control.

CC(C)CCCC(C)C1CCC2C3CCC4CC(N5CCCC5)=CCC4(C)C3CCC12C (stereo unspecified) was tested, and the T/C (dose: 75.0 mg/kg/injection, schedule: Q04DX003 (sc), vehicle: steriod suspending solution) was 96 % of control, the T/C (dose: 150.0 mg/kg/injection, schedule: Q04DX003 (sc), vehicle: steriod suspending solution) was 96 % of control and the T/C (dose: 300.0 mg/kg/injection, schedule: Q04DX003 (sc), vehicle: steriod suspending solution) was 102 % of control.

CN(C)CCOc1ccc(Cl)cc1Cc1ccccc1 was tested, and the T/C (dose: 3.12 mg/kg/injection, schedule: Q01DX009 (ip), vehicle: saline) was 95 % of control, the T/C (dose: 6.25 mg/kg/injection, schedule: Q01DX009 (ip), vehicle: saline) was 95 % of control and the T/C (dose: 12.5 mg/kg/injection, schedule: Q01DX009 (ip), vehicle: saline) was 118 % of control. For the same compound, the T/C (dose: 25.0 mg/kg/injection, schedule: Q01DX009 (ip), vehicle: saline) was 105 % of control, the T/C [5] was 100 % of control and the T/C (dose: 50.0 mg/kg/injection, schedule: Q01DX009 (ip), vehicle: saline) was 112 % of control. The T/C [6] was 94 % of control.

In the case of O=C(/C=C/c1ccccc1)c1ccccn1, the T/C [7] is reported as 100 % of control, the T/C [8] is reported as 104 % of control and the T/C [9] is reported as 100 % of control.

With COc1cc(/C=N/NC(=O)CCCCCCCCC(=O)N/N=C/c2ccc(O)c(OC)c2)ccc1O the T/C (dose: 50.0 mg/kg/injection, schedule: Q01DX009 (ip), vehicle: saline with Tween-80) was 95 % of control and 97 % of control, the T/C (dose: 100.0 mg/kg/injection, schedule: Q01DX001 (ip), vehicle: saline with Tween-80) was 92 % of control and the T/C (dose: 100.0 mg/kg/injection, schedule: Q01DX009 (ip), vehicle: saline with Tween-80) was 93 % of control and 91 % of control. For the same compound, the T/C (dose: 100.0 mg/kg/injection, schedule: Q04DX002 (ip), vehicle: saline with Tween-80) was 101 % of control, the T/C [7] was 87 % of control and the T/C (dose: 200.0 mg/kg/injection, schedule: Q01DX001 (ip), vehicle: saline with Tween-80) was 95 % of control. For the same compound, the T/C (dose: 200.0 mg/kg/injection, schedule: Q01DX009 (ip), vehicle: saline with Tween-80) was 94 % of control and 100 % of control, the T/C (dose: 200.0 mg/kg/injection, schedule: Q04DX002 (ip), vehicle: saline with Tween-80) was 93 % of control and 103 % of control and the T/C [8] was 97 % of control. For the same compound, the T/C (dose: 400.0 mg/kg/injection, schedule: Q01DX001 (ip), vehicle: saline with Tween-80) was 92 % of control, the T/C (dose: 400.0 mg/kg/injection, schedule: Q04DX002 (ip), vehicle: saline with Tween-80) was 90 % of control and the T/C [9] was 101 % of control.
